Read-outs that look alike come from different tables or passages of the source.
Legend:
H226B cells = experiment: Cell viability, H226B lung cancer cells; format: cell-based, human; conditions: Homo sapiens, H226B, Lung, read-out: IC50 (−LogM) (converted)
A549 cells = experiment: Cell viability, A549 lung cancer cells; format: cell-based, human; conditions: Homo sapiens; A549, Lung; read-out: IC50 (−LogM) (converted)
A549CK8 = experiment: Cell viability, A549CK8 lung cancer cells; format: cell-based, human; conditions: Homo sapiens; A549CK8, Lung; read-out: IC50 (−LogM) (converted)
Hct116 = experiment: Cell viability, Hct116 colon cancer cells; format: cell-based, human; conditions: Homo sapiens, HCT-116; Hct116, Colon; read-out: IC50 (−LogM) (converted)
CT116P53 = experiment: Cell viability, CT116P53 colon cancer cells; format: cell-based, human; conditions: Homo sapiens; CT116P53, Colon; read-out: IC50 (−LogM) (converted)
HKE3 = experiment: Cell viability, HKE3 colon cancer cells; format: cell-based, human; conditions: Homo sapiens, HKE3, Colon, read-out: IC50 (−LogM) (converted)
H322 cells = experiment: Cell viability, H322 lung cancer cells; format: cell-based, human; conditions: Homo sapiens, NCI-H322; H322, Lung; read-out: IC50 (−LogM) (converted)
H1299 cells = experiment: Cell viability, H1299 lung cancer cells; format: cell-based, human; conditions: Homo sapiens, NCI-H1299; h1299, Lung; read-out: IC50 (−LogM) (converted)
AsPC-1 = experiment: Cell viability, AsPC-1 pancreatic cancer cells; format: cell-based, human; conditions: Homo sapiens; ASPC1, Pancrease; read-out: IC50 (−LogM) (converted)
DLD1 = experiment: Cell viability, DLD1 colon cancer cells; format: cell-based, human; conditions: Homo sapiens, DLD-1; DLD1, Colon; read-out: IC50 (−LogM) (converted)
Heb46 = experiment: Cell viability, Heb46 kidney cells; format: cell-based
Heb44 = experiment: Cell viability, Heb44 kidney cells; format: cell-based
Capanc-1 = experiment: Cell viability, Capanc-1 pancreatic cancer cells; format: cell-based, human; conditions: Homo sapiens, Pancreatic cancer cell; capanc1, Pancrease; read-out: IC50 (−LogM) (converted)
miapac = experiment: Cell viability, miapac pancreatic cancer cells; format: cell-based, human; conditions: Homo sapiens, Pancreatic cancer cell; miapac, Pancrease; read-out: IC50 (−LogM) (converted)
H2122 = experiment: Cell viability, H2122 lung cancer cells; format: cell-based, human; conditions: Homo sapiens, NCI-H2122; H2122, Lung; read-out: IC50 (−LogM) (converted)
H2009 = experiment: Cell viability, H2009 lung cancer cells; format: cell-based, human; conditions: Homo sapiens, NCI-H2009; H2009, Lung; read-out: IC50 (−LogM) (converted)
H23 = experiment: Cell viability, H23 lung cancer cells; format: cell-based, human; conditions: Homo sapiens, NCI-H23; H23, Lung; read-out: IC50 (−LogM) (converted)
H1933 = experiment: Cell viability, H1933 lung cancer cells; format: cell-based, human; conditions: Homo sapiens; H1933, Lung; read-out: IC50 (−LogM) (converted)
H1395 = experiment: Cell viability, H1395 lung cancer cells; format: cell-based, human; conditions: Homo sapiens, NCI-H1395; H1395, Lung; read-out: IC50 (−LogM) (converted)
Ovcar3 = experiment: Cell viability, Ovcar3 ovary cancer cells; format: cell-based; conditions: Homo sapiens, OVCAR-3
SKOV3 = experiment: Cell viability, SKOV3 ovary cancer cells; format: cell-based; conditions: Homo sapiens, SK-OV-3
K-562 = experiment: NCI in-vitro testing, K-562 (Leukemia)
U251 = experiment: NCI in-vitro testing, U251 (CNS Cancer)
LOX IMVI = experiment: NCI in-vitro testing, LOX IMVI (Melanoma)
SK-MEL-2 = experiment: NCI in-vitro testing, SK-MEL-2 (Melanoma)
CAKI-1 = experiment: NCI in-vitro testing, CAKI-1 (Renal Cancer); conditions: for Percent Growth: CAK1-1
OVCAR-4 = experiment: NCI in-vitro testing, OVCAR-4 (Ovarian Cancer)
EKVX = experiment: NCI in-vitro testing, EKVX (Non-Small Cell Lung Cancer)
NCI-H522 = experiment: NCI in-vitro testing, NCI-H522 (Non-Small Cell Lung Cancer)
[1] = Homo sapiens, read-out: Log10 GI50 (converted)

OCc1cn(Cc2ccc(Cl)cc2)c2ccccc12 [Oncrasin K060, 1H-Indole-3-methanol, 1-[(4-chlorophenyl)methyl]-]
IC50 (H226B cells; first H226B line): 2.51 nM | IC50 (H226B cells; second H226B line): 3.16 nM | IC50 (A549 cells): 2000 nM | IC50 (A549CK8): 1000 nM | IC50 (Hct116): 100 nM | IC50 (CT116P53): < 31600 nM | IC50 (HKE3; first HKE3 line): 25.1 nM | IC50 (HKE3; second HKE3 line): < 3.16 nM | IC50 (H322 cells): 31600 nM | IC50 (H1299 cells): 3160 nM | IC50 (AsPC-1): 2000 nM | IC50 (DLD1): < 31600 nM | IC50 (Heb46): 200 nM | IC50 (Heb44): 10 nM | IC50 (Capanc-1): 10000 nM | IC50 (miapac): < 31600 nM | IC50 (H2122): 1000 nM | IC50 (H2009): 15800 nM | IC50 (H23): 15800 nM | IC50 (H1933): 10000 nM | IC50 (H1395): 20000 nM | IC50 (Ovcar3): 100 nM | IC50 (SKOV3): 631 nM | GI50 (K-562; Homo sapiens, K562): 19200 nM | CC50 (K-562; Homo sapiens, K562, read-out: LC50): 6460 nM | GI50 (K-562; Homo sapiens, K562, read-out: Log10 GI50 (converted)): 1910 nM | TGI (K-562; K-562): 1.26E−6 Molar | Percent Growth (K-562; K-562, Log10 Concentration −4.0 Molar): −71% | Percent Growth (K-562; K-562, Log10 Concentration −5.0 Molar): 8% | Percent Growth (K-562; K-562, Log10 Concentration −6.0 Molar): 67% | Percent Growth (K-562; K-562, Log10 Concentration −7.0 Molar): 100% | Percent Growth (K-562; K-562, Log10 Concentration −8.0 Molar): 114% | GI50 (U251; Homo sapiens, U-251): 2460 nM | CC50 (U251; Homo sapiens, U-251, read-out: LC50): > 100000 nM | GI50 (U251; Homo sapiens, U-251, read-out: Log10 GI50 (converted)): 2450 nM | TGI (U251; U251): 2.63E−5 Molar | Percent Growth (U251; U251, Log10 Concentration −4.0 Molar): −35% | Percent Growth (U251; U251, Log10 Concentration −5.0 Molar): 25% | Percent Growth (U251; U251, Log10 Concentration −6.0 Molar): 55% | Percent Growth (U251; U251, Log10 Concentration −7.0 Molar): 84% | Percent Growth (U251; U251, Log10 Concentration −8.0 Molar): 93% | TGI (LOX IMVI): 1.58E−6 Molar | GI50 (LOX IMVI; Homo sapiens): 4480 nM | CC50 (LOX IMVI; Homo sapiens, read-out: LC50): 47200 nM | GI50 (LOX IMVI; [1]): 4470 nM | Percent Growth (LOX IMVI; Log10 Concentration −4.0 Molar): −86% | Percent Growth (LOX IMVI; Log10 Concentration −5.0 Molar): 26% | Percent Growth (LOX IMVI; Log10 Concentration −6.0 Molar): 96% | Percent Growth (LOX IMVI; Log10 Concentration −7.0 Molar): 96% | Percent Growth (LOX IMVI; Log10 Concentration −8.0 Molar): 102% | GI50 (SK-MEL-2; Homo sapiens, SK-MEL-2): 1580 nM | CC50 (SK-MEL-2; Homo sapiens, SK-MEL-2, read-out: LC50): 48200 nM | GI50 (SK-MEL-2; Homo sapiens, SK-MEL-2, read-out: Log10 GI50 (converted)): 1580 nM | TGI (SK-MEL-2; SK-MEL-2): 5.94E−6 Molar | Percent Growth (SK-MEL-2; SK-MEL-2, Log10 Concentration −4.0 Molar): −64% | Percent Growth (SK-MEL-2; SK-MEL-2, Log10 Concentration −5.0 Molar): −20% | Percent Growth (SK-MEL-2; SK-MEL-2, Log10 Concentration −6.0 Molar): 67% | Percent Growth (SK-MEL-2; SK-MEL-2, Log10 Concentration −7.0 Molar): 84% | Percent Growth (SK-MEL-2; SK-MEL-2, Log10 Concentration −8.0 Molar): 98% | Percent Growth (CAKI-1; Log10 Concentration −4.0 Molar): 1% | Percent Growth (CAKI-1; Log10 Concentration −5.0 Molar): −47% | Percent Growth (CAKI-1; Log10 Concentration −6.0 Molar): −21% | Percent Growth (CAKI-1; Log10 Concentration −7.0 Molar): −3% | Percent Growth (CAKI-1; Log10 Concentration −8.0 Molar): 1% | GI50 (CAKI-1; Homo sapiens, CAKI-1): < 10 nM | CC50 (CAKI-1; Homo sapiens, CAKI-1, read-out: LC50): > 100000 nM | GI50 (CAKI-1; Homo sapiens, CAKI-1, read-out: Log10 GI50 (converted)): < 10 nM | GI50 (OVCAR-4; Homo sapiens, OVCAR-4): 340 nM | CC50 (OVCAR-4; Homo sapiens, OVCAR-4, read-out: LC50): > 100000 nM | GI50 (OVCAR-4; Homo sapiens, OVCAR-4, read-out: Log10 GI50 (converted)): 339 nM | TGI (OVCAR-4; OVCAR-4): 1.80E−5 Molar | Percent Growth (OVCAR-4; OVCAR-4, Log10 Concentration −4.0 Molar): −29% | Percent Growth (OVCAR-4; OVCAR-4, Log10 Concentration −5.0 Molar): 10% | Percent Growth (OVCAR-4; OVCAR-4, Log10 Concentration −6.0 Molar): 31% | Percent Growth (OVCAR-4; OVCAR-4, Log10 Concentration −7.0 Molar): 71% | Percent Growth (OVCAR-4; OVCAR-4, Log10 Concentration −8.0 Molar): 94% | TGI (EKVX): 6.47E−5 Molar | GI50 (EKVX; Homo sapiens): 24000 nM | CC50 (EKVX; Homo sapiens, read-out: LC50): > 100000 nM | GI50 (EKVX; [1]): 24000 nM | Percent Growth (EKVX; Log10 Concentration −4.0 Molar): −22% | Percent Growth (EKVX; Log10 Concentration −5.0 Molar): 94% | Percent Growth (EKVX; Log10 Concentration −6.0 Molar): 107% | Percent Growth (EKVX; Log10 Concentration −7.0 Molar): 105% | Percent Growth (EKVX; Log10 Concentration −8.0 Molar): 103% | TGI (NCI-H522): 1.24E−5 Molar | GI50 (NCI-H522; Homo sapiens, NCI-H522): 2410 nM | CC50 (NCI-H522; Homo sapiens, NCI-H522, read-out: LC50): 51000 nM | GI50 (NCI-H522; Homo sapiens, NCI-H522, read-out: Log10 GI50 (converted)): 2400 nM | Percent Growth (NCI-H522; Log10 Concentration −4.0 Molar): −74% | Percent Growth (NCI-H522; Log10 Concentration −5.0 Molar): 7% | Percent Growth (NCI-H522; Log10 Concentration −6.0 Molar): 76% | Percent Growth (NCI-H522; Log10 Concentration −7.0 Molar): 82% | Percent Growth (NCI-H522; Log10 Concentration −8.0 Molar): 91%

From patent US8883841B2, “Oncogenic ras-specific cytotoxic compound and methods of use thereof” (The Board of Regents of the University of Texas System, priority 2005, dated 2014)
